Measurements from the supplement of paper PMC10307832.

What was measured:
Assay in all cases: relative viability (nuclei count vs DMSO), 5 days (fraction); higher = more cells survive
NCI-H2085 = system: NCI-H2085
Procedure, shortened: (§1)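 Values are medians from duplicate plates. Each reflects relative viability, defined as the nuclei count of treated wells over that of vehicle wells. Lung cancer cell lines in 1536-well plates were pin-tool dosed one day after seeding with one drug alone or with a fixed anchor-drug dose plus five library-drug doses (not always all listed) in √10 steps, then fixed, stained and imaged at 4× after 5 days.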

NCI-H1563 = system: NCI-H1563
Procedure, shortened: as §1

NCI-H1944 = system: NCI-H1944
Procedure, shortened: as §1

LU99A = system: LU99A
Procedure, shortened: as §1

HCC-827 = system: HCC-827
Procedure, shortened: as §1

EPLC-272H = system: EPLC-272H
Procedure, shortened: as §1

NCI-H2023 = system: NCI-H2023
Procedure, shortened: as §1

SK-MES-1 = system: SK-MES-1
Procedure, shortened: as §1

EMC-BAC-2 = system: EMC-BAC-2
Procedure, shortened: as §1

NCI-H2405 = system: NCI-H2405
Procedure, shortened: as §1

COR-L23 = system: COR-L23
Procedure, shortened: as §1

NCI-H2087 = system: NCI-H2087
Procedure, shortened: as §1

ChaGo-K-1 = system: ChaGo-K-1
Procedure, shortened: as §1

NCI-H838 = system: NCI-H838
Procedure, shortened: as §1

NCI-H1651 = system: NCI-H1651
Procedure, shortened: as §1

HCC-44 = system: HCC-44
Procedure, shortened: as §1

LCLC-103H = system: LCLC-103H
Procedure, shortened: as §1

NCI-H520 = system: NCI-H520
Procedure, shortened: as §1

NCI-H1793 = system: NCI-H1793
Procedure, shortened: as §1

NCI-H1395 = system: NCI-H1395
Procedure, shortened: as §1

NCI-H650 = system: NCI-H650
Procedure, shortened: as §1

H3255 = system: H3255
Procedure, shortened: as §1

Structure (SMILES): Nc1ccn([C@@H]2O[C@H](CO)[C@@H](O)[C@@H]2O)c(=O)n1 [Cytarabine] + COc1cccc2cc(-c3nc([C@H]4CC[C@H](C(=O)O)CC4)n4ncnc(N)c34)[nH]c12 [OSI-027] (partner 0.5 µM)
- relative viability (NCI-H2085; first compound 0.005 µM): 0.535
- relative viability (NCI-H2085; first compound 0.01581 µM): 0.735
- relative viability (NCI-H2085; first compound 0.05 µM): 0.623
- relative viability (NCI-H2085; first compound 0.1581 µM): 0.442
- relative viability (NCI-H2085; first compound 0.5 µM): 0.459
- relative viability (NCI-H1563; first compound 0.005 µM): 0.691
- relative viability (NCI-H1563; first compound 0.01581 µM): 0.797
- relative viability (NCI-H1563; first compound 0.05 µM): 0.773
- relative viability (NCI-H1563; first compound 0.1581 µM): 0.583
- relative viability (NCI-H1563; first compound 0.5 µM): 0.628
- relative viability (NCI-H1944; first compound 0.005 µM): 0.313
- relative viability (NCI-H1944; first compound 0.01581 µM): 0.239
- relative viability (NCI-H1944; first compound 0.05 µM): 0.214
- relative viability (NCI-H1944; first compound 0.1581 µM): 0.155
- relative viability (NCI-H1944; first compound 0.5 µM): 0.133
- relative viability (LU99A; first compound 0.005 µM): 0.287
- relative viability (LU99A; first compound 0.01581 µM): 0.271
- relative viability (LU99A; first compound 0.05 µM): 0.288
- relative viability (LU99A; first compound 0.1581 µM): 0.288
- relative viability (LU99A; first compound 0.5 µM): 0.281
- relative viability (HCC-827; first compound 0.005 µM): 0.467
- relative viability (HCC-827; first compound 0.01581 µM): 0.348
- relative viability (HCC-827; first compound 0.05 µM): 0.265
- relative viability (HCC-827; first compound 0.1581 µM): 0.175
- relative viability (HCC-827; first compound 0.5 µM): 0.159
- relative viability (EPLC-272H; first compound 0.005 µM): 0.268
- relative viability (EPLC-272H; first compound 0.01581 µM): 0.28
- relative viability (EPLC-272H; first compound 0.05 µM): 0.214
- relative viability (EPLC-272H; first compound 0.1581 µM): 0.189
- relative viability (EPLC-272H; first compound 0.5 µM): 0.182
- relative viability (NCI-H2023; first compound 0.005 µM): 0.212
- relative viability (NCI-H2023; first compound 0.01581 µM): 0.152
- relative viability (NCI-H2023; first compound 0.05 µM): 0.107
- relative viability (NCI-H2023; first compound 0.1581 µM): 0.104
- relative viability (NCI-H2023; first compound 0.5 µM): 0.102
- relative viability (SK-MES-1; first compound 0.005 µM): 0.343
- relative viability (SK-MES-1; first compound 0.01581 µM): 0.282
- relative viability (SK-MES-1; first compound 0.05 µM): 0.18
- relative viability (SK-MES-1; first compound 0.1581 µM): 0.297
- relative viability (SK-MES-1; first compound 0.5 µM): 0.267
- relative viability (EMC-BAC-2; first compound 0.005 µM): 0.413
- relative viability (EMC-BAC-2; first compound 0.01581 µM): 0.353
- relative viability (EMC-BAC-2; first compound 0.05 µM): 0.312
- relative viability (EMC-BAC-2; first compound 0.1581 µM): 0.27
- relative viability (EMC-BAC-2; first compound 0.5 µM): 0.22
- relative viability (NCI-H2405; first compound 0.005 µM): 0.62
- relative viability (NCI-H2405; first compound 0.01581 µM): 0.558
- relative viability (NCI-H2405; first compound 0.05 µM): 0.434
- relative viability (NCI-H2405; first compound 0.1581 µM): 0.394
- relative viability (NCI-H2405; first compound 0.5 µM): 0.325
- relative viability (COR-L23; first compound 0.005 µM): 0.396
- relative viability (COR-L23; first compound 0.01581 µM): 0.546
- relative viability (COR-L23; first compound 0.05 µM): 0.546
- relative viability (COR-L23; first compound 0.1581 µM): 0.16
- relative viability (COR-L23; first compound 0.5 µM): 0.116
- relative viability (NCI-H2087; first compound 0.005 µM): 0.406
- relative viability (NCI-H2087; first compound 0.01581 µM): 0.485
- relative viability (NCI-H2087; first compound 0.05 µM): 0.416
- relative viability (NCI-H2087; first compound 0.1581 µM): 0.192
- relative viability (NCI-H2087; first compound 0.5 µM): 0.121
- relative viability (ChaGo-K-1; first compound 0.005 µM): 0.465
- relative viability (ChaGo-K-1; first compound 0.01581 µM): 0.353
- relative viability (ChaGo-K-1; first compound 0.05 µM): 0.247
- relative viability (ChaGo-K-1; first compound 0.1581 µM): 0.165
- relative viability (ChaGo-K-1; first compound 0.5 µM): 0.212
- relative viability (NCI-H838; first compound 0.005 µM): 0.397
- relative viability (NCI-H838; first compound 0.01581 µM): 0.379
- relative viability (NCI-H838; first compound 0.05 µM): 0.4
- relative viability (NCI-H838; first compound 0.1581 µM): 0.273
- relative viability (NCI-H838; first compound 0.5 µM): 0.185
- relative viability (NCI-H1651; first compound 0.005 µM): 0.792
- relative viability (NCI-H1651; first compound 0.01581 µM): 0.675
- relative viability (NCI-H1651; first compound 0.05 µM): 0.81
- relative viability (NCI-H1651; first compound 0.1581 µM): 0.442
- relative viability (NCI-H1651; first compound 0.5 µM): 0.298
- relative viability (HCC-44; first compound 0.005 µM): 0.376
- relative viability (HCC-44; first compound 0.01581 µM): 0.461
- relative viability (HCC-44; first compound 0.05 µM): 0.413
- relative viability (HCC-44; first compound 0.1581 µM): 0.189
- relative viability (HCC-44; first compound 0.5 µM): 0.226
- relative viability (LCLC-103H; first compound 0.005 µM): 0.412
- relative viability (LCLC-103H; first compound 0.01581 µM): 0.411
- relative viability (LCLC-103H; first compound 0.05 µM): 0.511
- relative viability (LCLC-103H; first compound 0.1581 µM): 0.418
- relative viability (LCLC-103H; first compound 0.5 µM): 0.473
- relative viability (NCI-H520; first compound 0.005 µM): 0.25
- relative viability (NCI-H520; first compound 0.01581 µM): 0.262
- relative viability (NCI-H520; first compound 0.05 µM): 0.33
- relative viability (NCI-H520; first compound 0.1581 µM): 0.212
- relative viability (NCI-H520; first compound 0.5 µM): 0.16
- relative viability (NCI-H1793; first compound 0.005 µM): 0.296
- relative viability (NCI-H1793; first compound 0.01581 µM): 0.285
- relative viability (NCI-H1793; first compound 0.05 µM): 0.245
- relative viability (NCI-H1793; first compound 0.1581 µM): 0.198
- relative viability (NCI-H1793; first compound 0.5 µM): 0.197
- relative viability (NCI-H1395; first compound 0.005 µM): 0.592
- relative viability (NCI-H1395; first compound 0.01581 µM): 0.484
- relative viability (NCI-H1395; first compound 0.05 µM): 0.369
- relative viability (NCI-H1395; first compound 0.1581 µM): 0.349
- relative viability (NCI-H1395; first compound 0.5 µM): 0.328
- relative viability (NCI-H650; first compound 0.005 µM): 0.438
- relative viability (NCI-H650; first compound 0.01581 µM): 0.424
- relative viability (NCI-H650; first compound 0.05 µM): 0.235
- relative viability (NCI-H650; first compound 0.1581 µM): 0.194
- relative viability (NCI-H650; first compound 0.5 µM): 0.206
- relative viability (H3255; first compound 0.005 µM): 0.521
- relative viability (H3255; first compound 0.01581 µM): 0.579
- relative viability (H3255; first compound 0.05 µM): 0.53
- relative viability (H3255; first compound 0.1581 µM): 0.429
- relative viability (H3255; first compound 0.5 µM): 0.453
